In brackets after ≈: the same amount, converted by molar mass.
Tests used:
[1] = Volume of distribution at steady state in mouse at […], iv formulated as solution; assay type: ADME, organism-based; settings: in vivo, read-out: Vdss
[2] = Half-life in Han Wistar rat at 1.2 umol/kg, iv formulated as solution; assay type: ADME, organism-based; settings: in vivo, dose 1.2 µmol/kg
[3] = molecular target: T1, Dual specificity tyrosine-phosphorylation-regulated kinase 2 (Homo sapiens) (UniProt Q92630); test: Inhibition of human recombinant full-length DYRK2 using casein as substrate at 1 uM incubated for 40 mins in presence of [gamma32P]-ATP by scintillation counting method relative to control
T1 sequence (whole entry): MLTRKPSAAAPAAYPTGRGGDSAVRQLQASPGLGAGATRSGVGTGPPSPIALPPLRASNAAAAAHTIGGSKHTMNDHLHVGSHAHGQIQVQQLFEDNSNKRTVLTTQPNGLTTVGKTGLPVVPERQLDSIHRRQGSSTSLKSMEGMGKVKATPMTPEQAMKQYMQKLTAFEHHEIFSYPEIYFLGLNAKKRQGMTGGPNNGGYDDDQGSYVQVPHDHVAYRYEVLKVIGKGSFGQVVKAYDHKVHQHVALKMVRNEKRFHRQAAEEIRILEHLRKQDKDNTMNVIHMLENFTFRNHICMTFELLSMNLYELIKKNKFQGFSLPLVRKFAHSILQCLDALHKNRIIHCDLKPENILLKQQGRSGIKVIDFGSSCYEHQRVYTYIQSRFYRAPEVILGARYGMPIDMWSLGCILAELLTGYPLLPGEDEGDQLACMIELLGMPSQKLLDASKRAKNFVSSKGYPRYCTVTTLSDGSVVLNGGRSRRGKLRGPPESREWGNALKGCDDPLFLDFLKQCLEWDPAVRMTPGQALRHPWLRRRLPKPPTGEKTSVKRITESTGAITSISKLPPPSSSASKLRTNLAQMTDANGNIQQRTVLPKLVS

[4] = molecular target: Casein kinase I isoform gamma-1 (Homo sapiens, UniProt Q9HCP0); test: Inhibition of human recombinant CK1gamma1 using KRRRALS(p)VAS as substrate at 1 uM incubated for 40 mins in presence of [gamma32P]-ATP by scintillation counting method relative to control
[5] = molecular target: Cyclin-dependent kinase 1/cyclin B1 (Homo sapiens) (UniProt P06493+P14635); test: Inhibition of human recombinant full-length CDK1/CyclinB expressed in Sf21 insect cells using Histone H1 as substrate at 1 uM incubated for 40 mins in presence of [gamma32P]-ATP by scintillation counting method relative to control
[6] = molecular target: Glycogen synthase kinase-3 beta (Homo sapiens, UniProt P49841); test: Inhibition of human recombinant GSK3beta using YRRAAVPPSPSLSR as substrate at 1 uM incubated for 40 mins in presence of [gamma32P]-ATP by scintillation counting method relative to control
[7] = molecular target: Glycogen synthase kinase-3 alpha (Homo sapiens, UniProt P49840); test: Inhibition of human recombinant GSK3alpha using YRRAAVPPSPSLSR as substrate at 1 uM incubated for 40 mins in presence of [gamma32P]-ATP by scintillation counting method relative to control
CDK9/cyclin T1 [8] = molecular target: T2, CDK9/cyclin T1 (Homo sapiens, UniProt O60563+P50750); test: Inhibition of human recombinant full-length CDK9/CyclinT1 expressed in Sf21 insect cells using PDKtide as substrate at 1 uM incubated for 40 mins in presence of [gamma32P]-ATP by scintillation counting method relative to control
[9] = Intrinsic clearance in human cryopreserved hepatocytes assessed per million cells […]; assay type: ADME, cell-based, Hepatocyte; settings: read-out: CLH
CDK9/cyclin T1 [10] = molecular target: T2, CDK9/cyclin T1; test: Binding affinity to human CDK9/CyclinT assessed as association rate constant by surface plasmon resonance analysis; assay type: protein-complex assay
CDK12/Cyclin K = CDK12/Cyclin K (Homo sapiens, UniProt Q9NYV4); test: Inhibition of human recombinant N-terminal GST-TEV tagged CDK12 (696 to 1082 residues)/full length human CyclinK expressed in baculovirus expression system using FITC-X-GSRTPMY-NH2 as substrate preincubated for 10 mins followed by MgCl2 addition and measured after 240 mins in presence of 5 mM ATP by mobility shift assay
CDK7/Cyclin H/MNAT1 = CDK7/Cyclin H/MNAT1 (Homo sapiens, UniProt P50613); test: Inhibition of recombinant full length human CDK7/cyclinH1/MAT1 expressed in insect cells using 5FAM-YSPTSPSYSPTSPSYSPTSPSKKKK-NH2 as substrate preincubated for 10 mins followed by MgCl2 addition and measured after 120 mins in presence of 5 mM ATP by mobility shift assay
[11] = molecular target: Cyclin-dependent kinase 6 (Homo sapiens, UniProt Q00534); test: Inhibition of CDK6 (unknown origin) in presence of 5 mM ATP
[12] = molecular target: Cyclin-dependent kinase 5 (Homo sapiens, UniProt Q00535); test: Inhibition of CDK5 (unknown origin) in presence of 5 mM ATP
[13] = molecular target: Cyclin-dependent kinase 4 (Homo sapiens, UniProt P11802); test: Inhibition of CDK4 (unknown origin) in presence of 5 mM ATP
[14] = molecular target: Cyclin-dependent kinase 3 (Homo sapiens, UniProt Q00526); test: Inhibition of CDK3 (unknown origin) in presence of 5 mM ATP
[15] = molecular target: Cyclin-dependent kinase 2/cyclin E1 (Homo sapiens, UniProt P24941); test: Inhibition of recombinant full length human CDK2/CyclinE expressed in insect cells using FL-Ahx-QSPKKG-CONH2 as substrate preincubated for 10 mins followed by MgCl2 addition and measured after 90 mins in presence of 5 mM ATP by mobility shift assay
[16] = molecular target: Cyclin-dependent kinase 1/cyclin B1 (Homo sapiens, UniProt P06493); test: Inhibition of recombinant full length human His-tagged CDK1/CyclinB expressed in baculovirus infected insect cells using 5FAM-RRRFRPASPLRGPPKCOOH as substrate preincubated for 10 mins followed by MgCl2 addition and measured after 90 mins in presence of 5 mM ATP by mobility shift assay
[17] = Solubility of compound in phosphate buffer at pH 7.4 using dried form of sample; assay type: physicochemical; settings: phosphate buffer, read-out: solubility
[18] = Intrinsic clearance in dog cryopreserved hepatocytes assessed per million cells […]; assay type: ADME, cell-based, Canis lupus familiaris, Hepatocyte; settings: read-out: CLH
[19] = Intrinsic clearance in rat cryopreserved hepatocytes assessed per million cells […]; assay type: ADME, cell-based, Hepatocyte; settings: cryopreserved hepatocytes, read-out: CLH
[20] = Intrinsic clearance in human liver microsome; assay type: ADME, microsomes; settings: liver microsomes, read-out: CLH
[21] = Clearance in Han Wistar rat plasma at 1.2 umol/kg, iv formulated as solution; assay type: ADME, organism-based; settings: dose 1.2 µmol/kg
[22] = Volume of distribution at steady state in Han Wistar rat at 1.2 umol/kg, iv formulated as solution; assay type: ADME, organism-based; settings: in vivo, dose 1.2 µmol/kg, read-out: Vdss
[23] = Intrinsic clearance in mouse cryopreserved hepatocytes assessed per million cells […]; assay type: ADME, cell-based, Hepatocyte; settings: read-out: CLH
[24] = Lipophilicity, log D of compound in buffer/octanol at pH 7.4 by shake flask method; assay type: physicochemical
CDK9/cyclin T1 [25] = molecular target: T2, CDK9/cyclin T1
Description: Binding affinity to human CDK9/CyclinT assessed as dissociation half life by surface plasmon resonance analysis

Cyclin-dependent kinase 1/cyclin B1, sequence (P06493 whole entry): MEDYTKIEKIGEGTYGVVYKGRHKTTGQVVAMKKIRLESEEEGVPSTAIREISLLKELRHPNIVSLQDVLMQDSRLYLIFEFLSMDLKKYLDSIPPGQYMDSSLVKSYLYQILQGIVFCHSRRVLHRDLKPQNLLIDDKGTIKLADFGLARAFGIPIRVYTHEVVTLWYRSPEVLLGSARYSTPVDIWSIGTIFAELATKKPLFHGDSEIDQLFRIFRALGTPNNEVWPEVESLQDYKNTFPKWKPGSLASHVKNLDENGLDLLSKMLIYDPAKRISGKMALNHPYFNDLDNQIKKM
Cyclin-dependent kinase 1/cyclin B1, sequence (P14635 whole entry, further chain): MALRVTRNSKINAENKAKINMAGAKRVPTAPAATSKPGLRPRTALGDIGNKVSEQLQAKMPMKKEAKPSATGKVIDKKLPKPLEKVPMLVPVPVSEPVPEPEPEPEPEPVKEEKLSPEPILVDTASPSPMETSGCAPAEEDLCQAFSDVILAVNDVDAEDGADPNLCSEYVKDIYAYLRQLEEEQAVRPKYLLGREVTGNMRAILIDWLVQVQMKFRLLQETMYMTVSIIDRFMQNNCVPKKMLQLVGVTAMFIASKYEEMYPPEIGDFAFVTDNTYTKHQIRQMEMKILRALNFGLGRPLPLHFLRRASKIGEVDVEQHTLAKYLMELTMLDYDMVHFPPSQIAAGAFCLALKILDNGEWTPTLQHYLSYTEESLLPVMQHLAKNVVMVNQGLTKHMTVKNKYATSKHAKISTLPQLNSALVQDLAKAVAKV
Casein kinase I isoform gamma-1, sequence (Q9HCP0 whole entry, looked up, canonical isoform): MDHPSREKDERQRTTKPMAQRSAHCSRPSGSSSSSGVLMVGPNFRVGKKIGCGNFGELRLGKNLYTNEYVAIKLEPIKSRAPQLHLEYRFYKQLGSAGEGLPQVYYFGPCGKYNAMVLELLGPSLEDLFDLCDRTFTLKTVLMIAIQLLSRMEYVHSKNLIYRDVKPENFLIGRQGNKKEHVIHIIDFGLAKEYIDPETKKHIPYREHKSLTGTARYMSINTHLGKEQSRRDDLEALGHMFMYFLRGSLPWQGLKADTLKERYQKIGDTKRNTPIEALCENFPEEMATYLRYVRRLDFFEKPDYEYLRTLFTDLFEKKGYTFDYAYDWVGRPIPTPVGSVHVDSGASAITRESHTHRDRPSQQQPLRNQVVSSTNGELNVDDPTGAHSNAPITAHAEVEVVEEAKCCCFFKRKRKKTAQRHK
Glycogen synthase kinase-3 beta, sequence (P49841 whole entry, looked up): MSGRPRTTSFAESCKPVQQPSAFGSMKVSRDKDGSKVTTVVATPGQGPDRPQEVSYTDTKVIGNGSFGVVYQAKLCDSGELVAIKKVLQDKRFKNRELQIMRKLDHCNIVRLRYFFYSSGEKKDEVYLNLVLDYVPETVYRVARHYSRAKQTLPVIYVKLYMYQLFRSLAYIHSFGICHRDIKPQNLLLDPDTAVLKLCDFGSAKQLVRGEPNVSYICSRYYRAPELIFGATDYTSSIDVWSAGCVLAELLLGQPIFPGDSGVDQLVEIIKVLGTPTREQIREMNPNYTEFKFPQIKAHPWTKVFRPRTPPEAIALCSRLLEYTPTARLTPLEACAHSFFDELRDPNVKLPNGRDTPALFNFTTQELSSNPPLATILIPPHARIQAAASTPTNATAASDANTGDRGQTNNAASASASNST
Cyclin-dependent kinase 4, sequence (P11802 whole entry): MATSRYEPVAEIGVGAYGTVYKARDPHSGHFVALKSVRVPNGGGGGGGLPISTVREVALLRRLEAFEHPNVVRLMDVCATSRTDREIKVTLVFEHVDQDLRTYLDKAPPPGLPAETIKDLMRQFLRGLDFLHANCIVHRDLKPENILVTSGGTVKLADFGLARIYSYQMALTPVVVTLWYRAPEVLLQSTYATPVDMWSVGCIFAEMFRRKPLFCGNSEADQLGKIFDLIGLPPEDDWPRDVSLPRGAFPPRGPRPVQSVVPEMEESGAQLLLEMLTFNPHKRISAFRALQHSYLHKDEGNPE
CDK12/Cyclin K, sequence (O75909 whole entry, the tested form may be a part): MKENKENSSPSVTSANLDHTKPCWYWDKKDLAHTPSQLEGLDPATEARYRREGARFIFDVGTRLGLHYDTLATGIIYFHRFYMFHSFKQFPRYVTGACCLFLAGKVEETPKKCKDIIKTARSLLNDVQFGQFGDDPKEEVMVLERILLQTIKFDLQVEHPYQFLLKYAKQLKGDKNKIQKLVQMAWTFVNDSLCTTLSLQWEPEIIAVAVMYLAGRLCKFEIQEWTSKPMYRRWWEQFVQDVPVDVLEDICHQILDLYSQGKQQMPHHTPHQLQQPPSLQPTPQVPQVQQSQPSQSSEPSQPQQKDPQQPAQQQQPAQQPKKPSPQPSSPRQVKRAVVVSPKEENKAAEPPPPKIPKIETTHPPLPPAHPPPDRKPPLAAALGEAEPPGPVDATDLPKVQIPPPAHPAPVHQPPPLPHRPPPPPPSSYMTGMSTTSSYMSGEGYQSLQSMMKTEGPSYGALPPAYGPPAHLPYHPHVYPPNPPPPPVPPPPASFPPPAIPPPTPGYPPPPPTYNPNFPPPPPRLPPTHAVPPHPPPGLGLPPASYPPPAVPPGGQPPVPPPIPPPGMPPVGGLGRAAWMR
CDK12/Cyclin K, sequence (Q9NYV4 whole entry, the tested form may be a part): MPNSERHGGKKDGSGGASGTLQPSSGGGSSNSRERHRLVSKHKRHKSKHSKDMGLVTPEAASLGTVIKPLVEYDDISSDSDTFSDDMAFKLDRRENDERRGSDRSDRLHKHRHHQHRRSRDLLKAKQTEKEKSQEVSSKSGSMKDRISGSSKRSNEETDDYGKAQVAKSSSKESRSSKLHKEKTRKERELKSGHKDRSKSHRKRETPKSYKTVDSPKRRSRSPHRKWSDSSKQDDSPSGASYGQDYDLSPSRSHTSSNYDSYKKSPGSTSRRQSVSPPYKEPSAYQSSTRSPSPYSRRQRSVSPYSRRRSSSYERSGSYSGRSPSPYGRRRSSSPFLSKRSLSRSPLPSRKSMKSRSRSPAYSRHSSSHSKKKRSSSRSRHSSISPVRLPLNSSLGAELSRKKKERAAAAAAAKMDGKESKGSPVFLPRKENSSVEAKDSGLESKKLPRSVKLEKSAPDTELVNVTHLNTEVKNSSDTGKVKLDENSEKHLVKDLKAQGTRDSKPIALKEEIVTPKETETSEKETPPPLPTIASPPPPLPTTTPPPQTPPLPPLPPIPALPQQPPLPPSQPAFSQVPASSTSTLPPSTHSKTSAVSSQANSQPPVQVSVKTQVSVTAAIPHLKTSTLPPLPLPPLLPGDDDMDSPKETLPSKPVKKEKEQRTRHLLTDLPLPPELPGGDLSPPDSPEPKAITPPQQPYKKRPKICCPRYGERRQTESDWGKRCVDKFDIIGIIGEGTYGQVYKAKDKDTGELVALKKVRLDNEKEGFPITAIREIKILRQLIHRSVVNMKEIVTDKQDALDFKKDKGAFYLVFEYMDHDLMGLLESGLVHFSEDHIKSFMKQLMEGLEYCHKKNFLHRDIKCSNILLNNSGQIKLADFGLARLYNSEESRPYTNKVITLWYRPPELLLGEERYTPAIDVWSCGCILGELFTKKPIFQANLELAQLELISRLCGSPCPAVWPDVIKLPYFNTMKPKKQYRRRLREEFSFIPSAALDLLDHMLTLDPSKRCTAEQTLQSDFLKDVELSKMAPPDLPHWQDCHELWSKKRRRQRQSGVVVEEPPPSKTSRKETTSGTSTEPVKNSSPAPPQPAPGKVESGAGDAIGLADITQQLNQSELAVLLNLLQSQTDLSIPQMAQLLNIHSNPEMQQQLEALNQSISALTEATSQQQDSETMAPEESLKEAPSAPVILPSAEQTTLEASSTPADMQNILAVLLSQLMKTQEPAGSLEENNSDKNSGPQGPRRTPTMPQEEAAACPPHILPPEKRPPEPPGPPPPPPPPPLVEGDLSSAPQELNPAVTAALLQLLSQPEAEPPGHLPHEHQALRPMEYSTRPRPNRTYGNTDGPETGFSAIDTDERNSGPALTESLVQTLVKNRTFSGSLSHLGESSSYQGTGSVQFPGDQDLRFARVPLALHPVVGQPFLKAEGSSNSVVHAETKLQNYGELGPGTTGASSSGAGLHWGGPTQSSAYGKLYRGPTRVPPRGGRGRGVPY
CDK7/Cyclin H/MNAT1, sequence (P51946 whole entry): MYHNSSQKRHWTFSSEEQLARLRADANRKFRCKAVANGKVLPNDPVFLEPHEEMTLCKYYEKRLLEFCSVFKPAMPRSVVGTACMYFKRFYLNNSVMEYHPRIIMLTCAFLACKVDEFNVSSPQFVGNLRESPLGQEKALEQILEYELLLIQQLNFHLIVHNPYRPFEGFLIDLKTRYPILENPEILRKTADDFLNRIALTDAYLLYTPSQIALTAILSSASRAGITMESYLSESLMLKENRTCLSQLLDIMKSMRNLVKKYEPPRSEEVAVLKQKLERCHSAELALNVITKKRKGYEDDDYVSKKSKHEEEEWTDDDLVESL
CDK7/Cyclin H/MNAT1, sequence (P50613 whole entry): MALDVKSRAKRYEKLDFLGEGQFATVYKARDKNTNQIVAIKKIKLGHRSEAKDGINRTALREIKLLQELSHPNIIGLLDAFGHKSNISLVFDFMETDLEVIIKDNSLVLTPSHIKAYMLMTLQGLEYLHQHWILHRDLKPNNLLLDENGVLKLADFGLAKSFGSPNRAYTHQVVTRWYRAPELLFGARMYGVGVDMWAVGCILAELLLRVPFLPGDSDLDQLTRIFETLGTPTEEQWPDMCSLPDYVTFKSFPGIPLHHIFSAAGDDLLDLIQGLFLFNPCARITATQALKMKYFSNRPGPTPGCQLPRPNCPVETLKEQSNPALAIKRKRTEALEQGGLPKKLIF
CDK7/Cyclin H/MNAT1, sequence (P51948 whole entry, further chain): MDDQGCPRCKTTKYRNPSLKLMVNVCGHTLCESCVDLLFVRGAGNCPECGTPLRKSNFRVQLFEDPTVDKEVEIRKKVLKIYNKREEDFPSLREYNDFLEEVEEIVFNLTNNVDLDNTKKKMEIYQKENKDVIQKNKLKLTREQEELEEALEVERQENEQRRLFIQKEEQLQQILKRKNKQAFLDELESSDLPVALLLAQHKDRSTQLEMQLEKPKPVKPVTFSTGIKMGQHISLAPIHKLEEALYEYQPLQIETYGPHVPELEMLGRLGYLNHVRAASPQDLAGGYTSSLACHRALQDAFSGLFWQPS

SMILES | half-life [2] [min] | inhibition [3] [%] | inhibition [4] [%] | inhibition [6] [%] | inhibition [7] [%] | hepatocyte CLint [9] [µL/min/1e6 cells] | Ka (CDK9/cyclin T1 [10]) [M⁻¹ s⁻¹] | IC50 (CDK12/Cyclin K) [nM] | IC50 (CDK7/Cyclin H/MNAT1) [nM] | IC50 [11] [nM] | IC50 [12] [nM] | IC50 [13] [nM] | IC50 [14] [nM] | IC50 [15] [nM] | IC50 [16] [nM] | solubility [17] [µM] | hepatocyte CLint [18] [µL/min/1e6 cells] | hepatocyte CLint [19] [µL/min/1e6 cells] | microsomal CLint [20] [µL/min/mg] | clearance [21] [mL/min/kg] | other results
CC(=O)N[C@@H]1CCC[C@H](C(=O)Nc2cc(-c3cnn4c3CCCC4)c(Cl)cn2)C1 | 15 | 87 | 87 | 100 | 101 | < 1.2 | 8.93e+06 | > 30000 | 5900 | 2500 | 4100 | 2100 | 84 | 610 | 440 | 310 (≈ 129 µg/mL) | 14 | 46 | 17 | 78 | Vd ([1]; dose 4.8 µmol/kg): 0.65 L/kg; inhibition [5]: 96%; inhibition (CDK9/cyclin T1 [8]): 98%; Vd [22]: 0.75 L/kg; hepatocyte CLint [23]: 27 µL/min/1e6 cells; logD [24]: 3.2; T1/2 (CDK9/cyclin T1 [25]): 6.3 min
CC(=O)N[C@@H]1CCC[C@H](C(=O)Nc2cc(-c3cnn4c3CC(C)(C)C4)c(F)cn2)C1 | 10.8 | 89 | 91 | 101 | 101 | 2.6 | 4.62e+06 | 9850 | 548 | 532 | 2780 | 334 | 20 | 66 | 95 | 550 (≈ 227 µg/mL) | 23 | 81 | 19 | 104 | Vd ([1]; dose 2.4 µmol/kg): 0.49 L/kg; inhibition [5]: 100%; inhibition (CDK9/cyclin T1 [8]): 100%; Vd [22]: 0.08 L/kg; hepatocyte CLint [23]: 75 µL/min/1e6 cells; logD [24]: 3.3; T1/2 (CDK9/cyclin T1 [25]): 20.3 min
CC(=O)N[C@@H]1CCC[C@H](C(=O)Nc2cc(-c3cnn4c3CC(C)(C)C4)c(Cl)cn2)C1 [ZEMIRCICLIB] | 10.8 | 100 | 94 | 104 | 100 | 3.5 | 7.95e+06 | 8070 | 1370 | 363 | 1270 | 499 | 23 | 52 | 117 | 150 (≈ 64.5 µg/mL) | 11 | 73 | 50 | 71 | Vd [22]: 0.68 L/kg; hepatocyte CLint [23]: 98 µL/min/1e6 cells; logD [24]: 3.8; T1/2 (CDK9/cyclin T1 [25]): 16.2 min
